According to patent US20100272696A1, “Human Bone-Forming Cells In The Treatment of Inflammatory Rheumatic Diseases” (BONE THERAPEUTICS S.A., priority 2007, published 2010):

Experiments:
[1] = system: Carrageenan-Induced Ankle/Paw Inflammation; assay: Model of Carrageenan-Induced Ankle/Paw Inflammation (1); type: in vivo, SWISS mice; conditions: DEX 1 mg/kg, OB 1*10^6, FIG. 3
Protocol: Sigma, Switzerland) in PBS into the hind paw of 8 weeks old SWISS mice; each animal receiving a single injection in each hind paw (Table 3). […] Sigma Switzerland) at a concentration of 1 mg/kg, or 1*10^6 human bone-forming cells (OB) (derived from bone marrow mesenchymal stromal cells as described in Example 1A) or a combination of DEX and OB. [table]

[2] = system: Carrageenan-Induced Ankle/Paw Inflammation; assay: Model of Carrageenan-Induced Ankle/Paw Inflammation (2); type: in vivo, SWISS mice; conditions: DEX 1 mg/kg, OB 1*10^6, FIG. 4
Protocol: Inflammation was induced by injection of a solution containing 1% lambda carrageenan (CARRA; Sigma, Switzerland) in PBS into the hind paw of 8 weeks old SWISS mice; each animal receiving a single injection in each hind paw (Table 4). Carrageenan injected animals received immediately after injection or PBS only, or a solution of Dexamethasone (DEX; Sigma Switzerland) at a concentration of 1 mg/kg, or 1*10^6 human bone-forming cells (OB) (derived from bone marrow mesenchymal stromal cells as described in Example 1A).
Under isoflurane sedation, the circumference of ankles and paws was measured using a digital caliper before the injection at T0 and at T1, T4, T6 and T24; respectively before CARRA administration, and 1 h, 4 h, 6 h and 24 hours after the injection.

C[C@@H]1C[C@H]2[C@@H]3CCC4=CC(=O)C=C[C@]4(C)[C@@]3(F)[C@@H](O)C[C@]2(C)[C@@]1(O)C(=O)CO [Dexamethasone]
inhibition of inflammation (ankle diameter) ([1]; 1 h after carrageenan): 100%
inhibition of inflammation (ankle diameter) ([1]; 4 h after carrageenan): 100%
inhibition of inflammation (paw diameter) ([2]; 1 h after carrageenan): 100%
inhibition of inflammation (paw diameter) ([2]; 6 h after carrageenan): 70%
inhibition of inflammation (paw diameter) ([2]; 24 h after carrageenan): 38%
